The text below walks through data of PubChem BioAssay (NCI).

Holding throughout (test): NCI-60 cell line screen, 48 h
Test [1] concerns RXF 393 renal.
Test [2] has as its system COLO 205 colon.
The subject of test [3] is SNB-19 CNS.
For test [4], the system named is NCI-H460 lung.
Test [5] has as its system MDA-MB-231 breast.
The test system of test [6] is UACC-257 melanoma.
Test [7] concerns TK-10 renal.
For test [8], the system named is MALME-3M melanoma.
Test [9] relates to ACHN renal.
The test system of test [10] is LOX IMVI melanoma.

Values joined by “and” are separate entries in the source; they are usually repeats but may differ in a detail not shown here. Equal values may be shown once.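 1) Cells in 96-well plates. 2) Compound, 48 h, 5 concentrations. 3) Linear interpolation between surrounding doses. 4) Unreached endpoint = highest concentration. GI50: concentration for 50% inhibition of growth. At the TGI there is no net growth.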 Some results are limits rather than exact numbers.

On to `O=C(c1ccccc1)c1ccc(O)c2ncccc12`, for which the GI50 in [1] was 3.18 µM; in test [2], 23.9 µM; in test [3], 6.54 µM; in test [4], 1.75 µM; in [5], 3.6 µM; in test [6], 5.75 µM. In addition, the GI50 is 6.99 µM in test [7], 5.1 µM in test [8], 3.46 µM in [9] and 1.87 µM in test [10]. Besides, the TGI in test [1] was 19.6 µM; in [2], 95.7 µM; in test [3] it was above 100 µM; in test [4], 16.2 µM; in [5], 64.3 µM; in test [6], above 100 µM. For the same compound, the TGI in test [7] was above 100 µM; in test [8], 46.4 µM; in test [9], 15.7 µM; in test [10], 13.1 µM.
As for `Oc1c(Cl)cc(CN(Cc2cc(Cl)c(O)c(Cl)c2)C2CCCCC2)cc1Cl`, the TGI in [1], in test [2], in test [3], in [4], in [5] and in test [6] was above 100 µM each time. The TGI in test [7], in test [8], in [9] and in [10] was above 100 µM throughout.
Regarding `Clc1ccc(N/N=C(\c2ccccc2)c2ccccn2)nc1`, the GI50 in [1] is 0.275 µM; in [2], 0.0308 µM; in [3] it was 0.466 µM; in test [4], 0.29 µM and 0.171 µM; in [5], 0.237 µM; in test [6], 0.154 µM. Besides, the GI50 in test [7] was 0.338 µM; in test [8] it was 0.0904 µM; in test [9] it was 0.0619 µM; in [10] it was 0.246 µM. In addition, the TGI in test [1] is 7.38 µM and 28.5 µM; in [2] it was 18.1 µM; in test [3], above 100 µM; in test [4], > 39.9 µM and 13.6 µM; in test [5] it was > 65.8 µM and 48.4 µM; in test [6], 12 µM and 20.7 µM. The TGI in test [7] was above 100 µM; in test [8] it was 72.2 µM and 25.7 µM; in test [9], > 36.8 µM and 12.5 µM; in test [10], 4.48 µM.
Regarding `O=c1oc2c(cc1-c1ccccc1)C(O)Oc1ccccc1-2` (centres undefined), the GI50 is 2.42 µM in [1]; 7.72 µM in test [2]; 6.38 µM in test [3]; 4.12 µM in test [4]; 15.5 µM in test [5]; 12.4 µM in [6]. Also, the GI50 is 6.46 µM in test [7], 9.19 µM in test [8], 20.4 µM in test [9] and 13 µM in [10]. For the same compound, the TGI in [1] was 6.41 µM; in test [2], 25.9 µM; in [3], above 100 µM; in test [4], above 100 µM; in test [5], above 100 µM; in test [6], 35.4 µM. The TGI is above 100 µM in test [7], 58.5 µM in [8], above 100 µM in [9] and above 100 µM in [10].
With `CNC(C)[C@H]1CCC2C3CCC4C[C@@H](N(C)C(=O)c5ccccc5)CC[C@]4(C)C3CC[C@@]21C` (some centres undefined), the GI50 is 1.73 µM in test [1]; 1.15 µM in test [2]; 2.88 µM in test [3]; 0.732 µM in test [4]; 1.6 µM in test [5]; 2.19 µM in test [6]. The GI50 in test [7] was 2.16 µM; in [8], 1.6 µM; in test [9], 2.37 µM; in test [10] it was 0.419 µM. Further, the TGI stood at 4.26 µM in test [1]; 2.52 µM in test [2]; 8.36 µM in test [3]; 2.33 µM in [4]; 3.87 µM in [5]; 5.53 µM in test [6]. The TGI worked out at 7.83 µM in test [7], 3.99 µM in [8], 9.59 µM in test [9] and 1.8 µM in test [10].
Regarding `CC(=O)[O][Hg][CH2]C1(C)COC(C)([CH2][Hg][O]C(C)=O)CO1` (centres undefined), the GI50 in [1] was 1.45 µM; in test [2] it was 1.47 µM; in test [3], 16.1 µM; in [4], 15.7 µM; in [5], 12.5 µM; in [6], 4.51 µM. Besides, the GI50 in test [7] is 2.29 µM; in test [8] it was 4.66 µM; in test [9], 1.5 µM; in test [10], 1.21 µM. For the same compound, the TGI in test [1] was 7.08 µM; in test [2], 3.15 µM; in [3] it was 30 µM; in [4], 40.4 µM; in test [5], 29.2 µM; in test [6], 10.5 µM. For the same compound, the TGI amounted to 6.2 µM in [7], 9.23 µM in [8], 2.84 µM in test [9] and 2.67 µM in test [10].
As for `CCOc1ccc(NC(=O)c2cc3ccccc3cc2O)cc1`, the GI50 in test [1] is 19 µM; in test [2], above 100 µM; in test [3] it was 41.2 µM; in test [4] it was above 100 µM; in test [5], 53.8 µM; in test [6] it was above 100 µM. The GI50 in test [7] was 74.8 µM; in test [8], 39.7 µM; in [9], 49.9 µM; in test [10], 58.1 µM. In addition, the TGI in test [1] is 40.2 µM; in test [2] it was above 100 µM; in test [3], above 100 µM; in test [4], above 100 µM; in [5] it was above 100 µM; in [6], above 100 µM. Also, the TGI in test [7], in [8], in test [9] and in test [10] was above 100 µM each time.
For the compound `CNC12C3C4C1C1C2C3C41C(=O)N[C@H](C(=O)N(C)[C@H](C[C@@H](OC(C)=O)c1nc(C(=O)N[C@@H](Cc2ccccc2)C[C@H](C)C(=O)OC)cs1)C(C)C)C1CC1` (some centres undefined), the GI50 was 0.213 µM in test [1]; 0.493 µM in test [2]; 0.679 µM in test [3]; 0.517 µM in [4]; 0.402 µM in test [5]; 2.99 µM in [6]. Also, the GI50 in [7] is 0.562 µM; in test [8] it was 0.504 µM; in test [9], 0.901 µM; in test [10] it was 0.234 µM. Besides, the TGI was 1.33 µM in test [1]; 2.31 µM in test [2]; above 15 µM in test [3]; above 15 µM in test [4]; 3.33 µM in [5]; above 15 µM in test [6]. Further, the TGI in [7], in test [8], in test [9] and in [10] was above 15 µM each time.
Regarding `O=C(O)c1cc2cc(O)ccc2[nH]1`, the GI50 in test [1], in test [2], in [3], in [4], in test [5] and in test [6] was above 100 µM throughout. Besides, the GI50 in test [7], in test [8], in test [9] and in test [10] was above 100 µM in each case. Further, the TGI in test [1], in [2], in test [3], in test [4], in test [5] and in test [6] was above 100 µM each time. Besides, the TGI in test [7], in test [8], in [9] and in test [10] was above 100 µM in each case.
As for `CSC(=NC#N)S/C=C/C(=O)c1cccc2ccccc12`, the GI50 was 32.3 µM in test [1]; 34.3 µM in test [2]; 43 µM in [3]; 37.8 µM in [4]; 26.2 µM in test [5]; 21.3 µM in test [6]. Besides, the GI50 in test [7] is 22.2 µM; in [8] it was 15.8 µM; in test [9], 28.3 µM; in test [10], 20.5 µM. Besides, the TGI is above 100 µM in [1]; above 100 µM in [2]; above 100 µM in [3]; above 100 µM in test [4]; 75.4 µM in test [5]; 47.2 µM in test [6]. The TGI in [7] is 45.4 µM; in test [8], 38.6 µM; in test [9], 82 µM; in test [10], above 100 µM.
For `C=C1[C@@H](O)C[C@H]2C(C)(C)C[C@H](Cl)C[C@]2(C)[C@H]1C[C@H](O)[C@H]1CC(=O)NC1=O`, the GI50 was 0.0132 µM in [1]; below 0.01 µM in test [2]; below 0.01 µM in [3]; below 0.01 µM in test [4]; 0.015 µM in test [5]; 0.0193 µM in test [6]. Also, the GI50 is 0.0253 µM in test [7], below 0.01 µM in test [8], 0.0166 µM in [9] and below 0.0445 µM in test [10]. Besides, the TGI in [1] is 0.0722 µM; in [2], 0.0564 µM; in [3], 0.241 µM; in [4], 0.29 µM; in test [5] it was 0.19 µM; in [6] it was 0.122 µM. For the same compound, the TGI in test [7] is 0.151 µM; in test [8], 0.0632 µM; in test [9], 0.176 µM; in [10], 0.442 µM.
On to `OCc1ncc(-c2ccccc2)s1`, for which the GI50 in test [1], in test [2], in test [3], in [4], in test [5] and in [6] was above 100 µM each time. In addition, the GI50 in test [7], in test [8], in [9] and in test [10] was above 100 µM in each case. The TGI in [1], in test [2], in [3], in [4], in test [5] and in test [6] was above 100 µM each time. Further, the TGI in [7], in test [8], in test [9] and in test [10] was above 100 µM in each case.
For `CCOC(=O)Nc1ccc(C(=O)/C=C/c2ccccc2)cc1`, the GI50 is 22.5 µM in test [1]; 20.3 µM in [2]; 26.4 µM in [3]; 28.9 µM in test [4]; 33.4 µM in [5]; 55 µM in test [6]. Moreover, the GI50 in test [7] was 28.9 µM; in test [8] it was 77.4 µM; in test [9], 22.2 µM; in [10] it was 8.7 µM. Moreover, the TGI was 49.1 µM in test [1]; 47.6 µM in test [2]; above 100 µM in test [3]; above 100 µM in test [4]; above 100 µM in test [5]; above 100 µM in [6]. Further, the TGI in test [7] was 86.5 µM; in [8] it was above 100 µM; in [9] it was 52.3 µM; in test [10], 33.1 µM.
Turning to `C[n+]1cc2cc3c(cc2c2ccccc21)OCO3`, the GI50 in test [1] was 16.4 µM; in test [2] it was 4.48 µM; in test [3], 1.64 µM; in test [4], 2.98 µM; in test [5] it was 10.8 µM; in test [6], 3.85 µM. For the same compound, the GI50 in test [7] is 8.33 µM; in [8] it was 1.86 µM; in test [9], 41.7 µM; in test [10], 9.11 µM. Also, the TGI in test [1] is above 100 µM; in test [2], 24 µM; in [4], 14.5 µM; in test [5], 54 µM; in test [6] it was 14 µM; in test [7], 61.4 µM. In addition, the TGI in [8] is 5.16 µM; in [9] it was above 100 µM; in test [10], 53.8 µM.
Take `c1ccc2c(-c3cnn4cc(-c5ccc(N6CCNCC6)cc5)cnc34)ccnc2c1`: the GI50 in [1] was 1.04 µM; in [2], 1.42 µM; in test [3], 1.25 µM; in [4], 0.216 µM; in test [5], 1.48 µM; in test [6], 1.75 µM. The GI50 in test [7] was 1.76 µM; in [8], 1.34 µM; in [9], 1.09 µM; in test [10], 1.27 µM. Moreover, the TGI in test [1] was found to be 2.45 µM; in test [2], 2.81 µM; in test [3], 2.56 µM; in [4] it was 0.525 µM; in test [5] it was 3.03 µM; in test [6] it was 3.29 µM. Further, the TGI stood at 3.2 µM in [7], 2.92 µM in test [8], 2.29 µM in test [9] and 2.58 µM in test [10].
